Test results published in PubChem BioAssay AID330 (DTP/NCI, 2004).
Values joined by “and” are separate entries in the source; they are usually repeats but may differ in a detail not shown here. Equal entries are not always repeated. Inconclusive results and toxic doses are left out.

System: P388 leukemia ip, CD2F1 mice, survival T/C
Test: NCI In Vivo Anticancer Drug Screen. Data for tumor model P388 Leukemia (intraperitoneal) in CD2F1 (CDF1) mice
Conditions: endpoint: median survival time, higher = longer survival
Summary of the method: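 Mice carrying the transplanted tumor received test compound or vehicle. Survival was recorded in each group, and the value is the treated-group measurement divided by that of the vehicle-treated control group.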

[1] = dose: 50.0 mg/kg/injection, schedule: Q01DX009 (ip), vehicle: saline with Tween-80
[2] = dose: 100.0 mg/kg/injection, schedule: Q01DX009 (ip), vehicle: saline with Tween-80
[3] = dose: 200.0 mg/kg/injection, schedule: Q01DX009 (ip), vehicle: saline with Tween-80
[4] = dose: 100.0 mg/kg/injection, schedule: Q01DX001 (ip), vehicle: saline with Tween-80
[5] = dose: 200.0 mg/kg/injection, schedule: Q01DX001 (ip), vehicle: saline with Tween-80
[6] = dose: 50.0 mg/kg/injection, schedule: Q04DX002 (ip), vehicle: Klucel (hydroxypropylcellulose) (HPC)
[7] = dose: 100.0 mg/kg/injection, schedule: Q04DX002 (ip), vehicle: Klucel (hydroxypropylcellulose) (HPC)
[8] = dose: 50.0 mg/kg/injection, schedule: Q01DX009 (ip), vehicle: Klucel (hydroxypropylcellulose) (HPC)
[9] = dose: 100.0 mg/kg/injection, schedule: Q01DX009 (ip), vehicle: Klucel (hydroxypropylcellulose) (HPC)
[10] = dose: 100.0 mg/kg/injection, schedule: Q01DX005 (ip), vehicle: Klucel (hydroxypropylcellulose) (HPC)
[11] = dose: 200.0 mg/kg/injection, schedule: Q01DX005 (ip), vehicle: Klucel (hydroxypropylcellulose) (HPC)
[12] = dose: 60.0 mg/kg/injection, schedule: Q01DX005 (ip), vehicle: saline with Tween-80
[13] = dose: 120.0 mg/kg/injection, schedule: Q01DX005 (ip), vehicle: saline with Tween-80
[14] = dose: 240.0 mg/kg/injection, schedule: Q01DX005 (ip), vehicle: saline with Tween-80

CN(C)CCOc1ccccc1Cc1ccccc1
T/C [1]: 95 % of control
T/C [2]: 100 % of control
T/C [3]: 118 % of control

CCCCCCCCCCCCCCCC(=O)Nc1cccc2c[n+](CC(=O)c3ccc(NC(=O)CCC(=O)OC)cc3)ccc12
T/C [4]: 90 % of control
T/C [5]: 86 % of control
T/C (dose: 400.0 mg/kg/injection, schedule: Q01DX001 (ip), vehicle: saline with Tween-80): 109 % of control

COC(=O)/C=C(/Sc1nc(Cl)c(Cl)nc1N)C(=O)OC (tested in a mixture with another compound)
T/C (dose: 7.5 mg/kg/injection, schedule: Q01DX005 (ip), vehicle: Klucel (hydroxypropylcellulose) (HPC)): 103 % of control
T/C (dose: 15.0 mg/kg/injection, schedule: Q01DX005 (ip), vehicle: Klucel (hydroxypropylcellulose) (HPC)): 113 % of control
T/C (dose: 30.0 mg/kg/injection, schedule: Q01DX005 (ip), vehicle: Klucel (hydroxypropylcellulose) (HPC)): 113 % of control

Nc1ccc(S(=O)(=O)n2c(=O)oc3ccc(Cl)cc32)cc1
T/C [6]: 97 % of control
T/C [7]: 97 % of control
T/C (dose: 200.0 mg/kg/injection, schedule: Q04DX002 (ip), vehicle: Klucel (hydroxypropylcellulose) (HPC)): 90 % of control

CCCCN(CCCC)C(Cl)=NCCC
T/C [8]: 94 % of control
T/C [9]: 93 % of control

CCCCCCCCCCCC(=O)NCCOCCOCCOCCOCCOCCOCCOCCOCCO (tested in a mixture with another compound)
T/C (dose: 50.0 mg/kg/injection, schedule: Q01DX005 (ip), vehicle: saline with Tween-80): 98 % of control
T/C (dose: 100.0 mg/kg/injection, schedule: Q01DX005 (ip), vehicle: saline with Tween-80): 102 % of control
T/C (dose: 200.0 mg/kg/injection, schedule: Q01DX005 (ip), vehicle: saline with Tween-80): 96 % of control

CNC(=S)N/N=C/c1ccccc1
T/C (dose: 25.0 mg/kg/injection, schedule: Q01DX009 (ip), vehicle: saline with Tween-80): 110 % of control
T/C [1]: 112 % of control
T/C (dose: 50.0 mg/kg/injection, schedule: Q01DX009 (ip), vehicle: saline): 100 % of control
T/C [2]: 117 % of control
T/C (dose: 100.0 mg/kg/injection, schedule: Q01DX009 (ip), vehicle: saline): 105 % of control
T/C [3]: 100 % of control
T/C (dose: 200.0 mg/kg/injection, schedule: Q01DX009 (ip), vehicle: saline): 100 % of control

CC(=O)C1CC2C=CC1N(C1=CC(=O)CC(C)(C)C1)C2=O (stereo not drawn)
T/C [1]: 108 % of control
T/C [2]: 107 % of control
T/C [3]: 100 % of control

CC(Nc1ncnc2c1CCc1ccccc1-2)C(=O)O (stereo not drawn)
T/C (dose: 100.0 mg/kg/injection, schedule: Q04DX002 (ip), vehicle: saline with Tween-80): 100 % of control
T/C (dose: 200.0 mg/kg/injection, schedule: Q04DX002 (ip), vehicle: saline with Tween-80): 94 % of control

COC(=O)CC(c1ccccc1)C1(c2ccc3c(c2)OCO3)SCCCS1 (stereo not drawn)
T/C [4]: 92 % of control
T/C [5]: 90 % of control

N#CC1(C#N)C2C=CC(C2)N1OC(=O)c1ccc([N+](=O)[O-])cc1 (stereo not drawn)
T/C [1]: 95 % of control
T/C [2]: 92 % of control
T/C [3]: 95 % of control

Cc1ccc(-c2cnc3[nH]c(=O)[nH]c(=O)c3n2)cc1
T/C (dose: 100.0 mg/kg/injection, schedule: Q04DX002 (ip), vehicle: saline): 97 % of control
T/C (dose: 200.0 mg/kg/injection, schedule: Q04DX002 (ip), vehicle: saline): 106 % of control
T/C (dose: 400.0 mg/kg/injection, schedule: Q04DX002 (ip), vehicle: saline): 91 % of control

Nc1ccc2nc3ccc(N)cc3[n+](-c3ccccc3)c2c1
T/C (dose: 0.39 mg/kg/injection, schedule: Q04DX003 (ip), vehicle: saline): 100 % of control
T/C (dose: 0.78 mg/kg/injection, schedule: Q04DX003 (ip), vehicle: saline): 95 % of control
T/C (dose: 1.56 mg/kg/injection, schedule: Q04DX003 (ip), vehicle: saline): 95 % of control
T/C (dose: 3.13 mg/kg/injection, schedule: Q04DX003 (ip), vehicle: saline): 95 % of control
T/C (dose: 6.25 mg/kg/injection, schedule: Q04DX003 (ip), vehicle: saline): 95 % of control
T/C (dose: 8.0 mg/kg/injection, schedule: Q01DX009 (ip), vehicle: saline with Tween-80): 154 % of control
T/C (dose: 12.0 mg/kg/injection, schedule: Q01DX009 (ip), vehicle: saline with Tween-80): 154 % of control
T/C (dose: 12.5 mg/kg/injection, schedule: Q04DX003 (ip), vehicle: saline): 95 % of control
T/C (dose: 18.0 mg/kg/injection, schedule: Q01DX009 (ip), vehicle: saline with Tween-80): 86 % of control

CC(C)(C)CC(C)(C)NC(=S)NC1C2CC3CC(C2)CC1C3 (stereo not drawn)
T/C [8]: 89 % of control
T/C [9]: 90 % of control

OC(CC1(O)C(F)(F)C(F)(F)C1(F)F)c1ccccc1 (stereo not drawn)
T/C (dose: 100.0 mg/kg/injection, schedule: Q04DX003 (ip), vehicle: saline with Tween-80): 100 % of control
T/C (dose: 200.0 mg/kg/injection, schedule: Q04DX003 (ip), vehicle: saline with Tween-80): 90 % of control

CC(=O)N1CCN(C(C)=O)C2C1N(C(C)=O)CCN2C(C)=O (stereo not drawn)
T/C (dose: 50.0 mg/kg/injection, schedule: Q01DX005 (ip), vehicle: saline): 117 % of control
T/C (dose: 60.0 mg/kg/injection, schedule: Q01DX005 (ip), vehicle: saline): 105 % of control
T/C (dose: 100.0 mg/kg/injection, schedule: Q01DX005 (ip), vehicle: saline): 105 % of control
T/C (dose: 120.0 mg/kg/injection, schedule: Q01DX005 (ip), vehicle: saline): 107 % of control
T/C (dose: 200.0 mg/kg/injection, schedule: Q01DX005 (ip), vehicle: saline): 115 % of control
T/C (dose: 240.0 mg/kg/injection, schedule: Q01DX005 (ip), vehicle: saline): 100 % of control

CC(C)NC(=O)OCc1cn2c(c1COC(=O)NC(C)C)CCC2
T/C (dose: 12.5 mg/kg/injection, schedule: Q01DX005 (ip), vehicle: saline with Tween-80): 120 % of control and 121 % of control
T/C (dose: 25.0 mg/kg/injection, schedule: Q01DX005 (ip), vehicle: saline with Tween-80): 112 % of control

O=C1C(n2ccc(=O)[nH]c2=O)CCN1CCCl (stereo not drawn)
T/C [10]: 108 % of control
T/C [11]: 108 % of control

CC(C)(C)SC(=O)CC1(O)CCCCC1
T/C (dose: 25.0 mg/kg/injection, schedule: Q04DX002 (ip), vehicle: Klucel (hydroxypropylcellulose) (HPC)): 98 % of control
T/C [6]: 100 % of control
T/C [7]: 100 % of control

COCOc1cccc2c1C(O)CC2 (stereo not drawn)
T/C [12]: 100 % of control
T/C [13]: 100 % of control
T/C [14]: 98 % of control

COC1=CC=C2CC(=C1)CCC1C2CCC2(C)C(=O)CCC12 (stereo not drawn)
T/C (dose: 50.0 mg/kg/injection, schedule: Q01DX005 (ip), vehicle: Klucel (hydroxypropylcellulose) (HPC)): 100 % of control
T/C [10]: 96 % of control
T/C [11]: 91 % of control

COc1ccc(-c2cc(C(=O)O)c3cc4ccccc4cc3n2)cc1Br
T/C [1]: 94 % of control
T/C [2]: 93 % of control and 97 % of control
T/C [3]: 105 % of control and 87 % of control
T/C (dose: 400.0 mg/kg/injection, schedule: Q01DX009 (ip), vehicle: saline with Tween-80): 121 % of control and 89 % of control
T/C (dose: 600.0 mg/kg/injection, schedule: Q01DX009 (ip), vehicle: saline with Tween-80): 101 % of control

O=C(O)C12C3CCC(O3)C1(C(=O)O)C1CCC2O1 (stereo not drawn)
T/C [12]: 94 % of control
T/C [13]: 90 % of control
T/C [14]: 88 % of control

CC(NS(=O)(=O)N1CCOC1=O)c1ccccc1 (stereo not drawn)
T/C (dose: 60.0 mg/kg/injection, schedule: Q01DX005 (ip), vehicle: Klucel (hydroxypropylcellulose) (HPC)): 104 % of control
T/C (dose: 120.0 mg/kg/injection, schedule: Q01DX005 (ip), vehicle: Klucel (hydroxypropylcellulose) (HPC)): 107 % of control
T/C (dose: 240.0 mg/kg/injection, schedule: Q01DX005 (ip), vehicle: Klucel (hydroxypropylcellulose) (HPC)): 104 % of control

COC1OC(CO)C2OC(C)(C)OC12 (stereo not drawn)
T/C (dose: 50.0 mg/kg/injection, schedule: Q01DX005 (ip), vehicle: suspension in saline): 101 % of control
T/C (dose: 100.0 mg/kg/injection, schedule: Q01DX005 (ip), vehicle: suspension in saline): 106 % of control
T/C (dose: 200.0 mg/kg/injection, schedule: Q01DX005 (ip), vehicle: suspension in saline): 101 % of control

COc1ccc(C(=O)C2=C(C)Nc3ccc(Br)cc3S2)cc1
T/C [12]: 101 % of control
T/C [13]: 110 % of control
T/C [14]: 105 % of control

c1ccc2c3c(ccc2c1)CC1CCCN1C3 (stereo not drawn)
T/C (dose: 100.0 mg/kg/injection, schedule: Q04DX003 (ip), vehicle: Klucel (hydroxypropylcellulose) (HPC)): 100 % of control
T/C (dose: 200.0 mg/kg/injection, schedule: Q04DX003 (ip), vehicle: Klucel (hydroxypropylcellulose) (HPC)): 103 % of control
